Test results reported in paper PMC9715504, “The blood-to-plasma ratio and predicted GABAA-binding affinity of designer benzodiazepines” (Forensic Toxicology, 2022).
Read-outs that look alike come from different tables or passages of the source.

What was measured:
GABAA receptor = target: GABAA receptor; parameters: method as in PMID 29685303; settings: QSAR, previous work; cited from earlier work
[1] = Determination of the blood-to-plasma ratio (spiked whole blood and plasma, GC–MS of plasma); type: in vitro ADME; settings: pooled human blood, haematocrit 41%, 1 h at 37 °C; for Kb/p experimental (blood-to-plasma ratio): 5 µM; for blood plasma ratio at 1 h, 5 µM: both sexes, pooled whole blood and plasma, read-out: Kb/p experimental (blood-to-plasma ratio)
Protocol: Human blood (pooled, from three male donors and three female donors) was obtained from Seralab (West Sussex, UK). Blood was received chilled with sodium citrate as an anticoagulant and kept at 4 °C until use. The blood was used prior to its expiration date. Blood haematocrit was 41%, as provided by the supplier.
In this method, only analysis of the plasma is required. Briefly, the compound is spiked into equal volumes of whole blood and plasma. Following equilibration, the whole blood is centrifuged to extract the plasma. The extracted plasma and the original plasma are analysed to obtain compound concentrations. The blood-to-plasma ratio can then be calculated from Eq. 1 (shown below).
In this work, aliquots of whole blood (5 mL) were centrifuged at 2500 rpm for 20 min to provide plasma. This was performed on the day of the experiments. The plasma was removed and stored at 4 °C until use (typically within 2 h).
The compounds were dissolved in DMSO or acetonitrile to produce 5 mM stock solutions. Stock solutions were diluted with PBS (pH 7.4) to produce working solutions (50 µM) on the day of experimentation. Stock solutions were stored for no longer than 1 week. Appropriate volumes of working solutions were added to blood or plasma to yield a final compound concentration of 5 µM (final solvent concentrations were 0.1%). The treated blood or plasma samples were incubated for 1 h at 37 °C. Following incubation, the blood sample was removed and centrifuged at 2500 rpm for 20 min and the plasma was extracted. The 250 µL of extracted plasma (from spiked whole blood) and 250 µL of spiked plasma had ice-cold acetonitrile added to precipitate proteins (4:1 ratio of acetonitrile-to-plasma). Both plasma samples were then centrifuged at 10,000 rpm for 20 min. The supernatants were collected and evaporated under a stream of nitrogen using a Biotage Turbovap LV Evaporator. The evaporated samples were reconstituted in 150 µL acetonitrile and analysed using gas chromatography–mass spectrometry (GC–MS).
The […] was calculated using Eq. 11 Ke/p=1/H×CPRef/CP-1+1, where Ke/p is the red blood cell partition coefficient, H is the haematocrit, CPRef is the concentration (µM) in the reference plasma, and CP is the concentration (µM) in the plasma separated from the whole blood.
Ke/p describes the ratio of the concentration of drug in the red blood cells (not including plasma) to the concentration of drug in plasma. Ke/p can be converted to the blood-to-plasma ratio (Kb/p) with Eq. 22 Kb/p=(Ke/p×H)+1-H, where Kb/p is the blood-to-plasma ratio, Ke/p is the […], and H is the haematocrit. Kb/p therefore describes the ratio of the concentration of drug in whole blood (containing both red blood cells and plasma) to the concentration of the drug in plasma.

[2] = ref 13; cited from earlier work
[3] = cited from earlier work; for Kb/p literature (blood-to-plasma ratio): literature range
[4] = parameters: method as in PMID 31933443; settings: user reports; cited from earlier work

Cc1nnc2n1-c1ccc([N+](=O)[O-])cc1C(c1ccccc1F)=NC2 [flunitrazolam]
predicted log 1/c value (GABAA receptor): 8.88

CN1C(=O)CN=C(c2ccccc2Cl)c2cc(Cl)ccc21 [Diclazepam, diclazepam]
Kb/p experimental (blood-to-plasma ratio) [1]: 0.82 ± 0.05 | plasma protein binding [2]: 93.8%

CN(C)CCCN1c2ccccc2Sc2ccc(Cl)cc21 [Chlorpromazine, chlorpromazine]
blood plasma ratio at 1 h, 5 µM [1]: 1.43 ± 0.32 | Kb/p literature (blood-to-plasma ratio) [3]: 1.17–1.56

Cc1nnc2n1-c1ccc(Br)cc1C(c1ccccn1)=NC2 [Pyrazolam, pyrazolam]
Kb/p experimental (blood-to-plasma ratio) [1]: 1.18 ± 0.03 | plasma protein binding [2]: 78.7%

Cc1nnc2n1-c1sc(Cl)cc1C(c1ccccc1F)=NC2 [Fluclotizolam]
dose reported as having a 'heavy effect' [4]: more than 0.75 mg

CCc1cc2c(s1)-n1c(C)nnc1CN=C2c1ccccc1 [Deschloroetizolam, deschloroetizolam]
Kb/p experimental (blood-to-plasma ratio) [1]: 0.68 ± 0.06 | plasma protein binding [2]: 87.2%

O=C1CN=C(c2ccccc2Cl)c2cc([N+](=O)[O-])ccc2N1 [Clonazepam, clonazepam]
blood-to-plasma ratio ([3]; ref 37): 0.65

C=C[C@H]1C[N@@]2CC[C@H]1C[C@H]2[C@H](O)c1ccnc2ccc(OC)cc12 [Quinine, quinine]
blood plasma ratio at 1 h, 5 µM [1]: 1.66 ± 0.52 | Kb/p literature (blood-to-plasma ratio) [3]: 1.46–2.00

CCc1cc2c(s1)-n1c(C)nnc1CN=C2c1ccccc1Cl [Etizolam, etizolam]
blood plasma ratio at 1 h, 5 µM [1]: 0.7 ± 0.03 | plasma protein binding [2]: 92.8%

O=C1CN=C(c2ccccc2)c2cc([N+](=O)[O-])ccc2N1 [Nitrazepam, nitrazepam]
blood plasma ratio at 1 h, 5 µM [1]: 0.63 ± 0.02 | blood-to-plasma ratio ([3]; calculated from literature whole blood and plasma concentrations (125-I radioimmunoassay)): 0.57 ± 0.27 | blood-to-plasma ratio ([3]; commonly reported value, origin unclear): 1.0 | Kb/p literature (blood-to-plasma ratio) [3]: 0.57–1.00

C[C@@H]1N=C(c2ccccc2Cl)c2cc([N+](=O)[O-])ccc2NC1=O [Meclonazepam, meclonazepam]
blood plasma ratio at 1 h, 5 µM [1]: 0.83 ± 0.08

O=C1Nc2ccc(Cl)cc2C(c2ccccc2Cl)=NC1O (stereo not drawn) [lorazepam]
blood-to-plasma ratio ([3]; ref 16): 0.60 | blood-to-plasma ratio ([3]; ref 38): 1.14

O=C1CN=C(c2ccccc2Cl)c2cc(Br)ccc2N1 [Phenazepam, phenazepam]
blood plasma ratio at 1 h, 5 µM [1]: 0.57 ± 0.13 | plasma protein binding [2]: 98.3%
